Data as given in patent publication US20130109682A1, “CYCLIC ETHER COMPOUNDS USEFUL AS KINASE INHIBITORS” (NOVARTIS AG, priority 2010, published 2013).

What was measured:
GSK3β = GSK3β (Homo sapiens, UniProt P49841); assay: GSK3β ATP depletion assay; format: biochemical; settings: ATP depletion assay; read-out: GSK3b IC50
Summary of the method: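 Kinase activity is read as ATP consumption: luciferase luminescence reports the ATP remaining once roughly half of the 2 μM ATP is used. Reaction mix: 5 nM GSK3β, 10 μM b-CREB peptide, 50 mM Tris pH 7.5, 15 mM MgCl2, 1 mM DTT, 0.1% BSA, 2.5% DMSO. Enzyme and peptide are preincubated 15 min before ATP is added.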

[1] = system: KMS11 (human myeloma cell line); assay: Cell proliferation assay (CellTiter-Glo), KMS11; format: cell-based; settings: Homo sapiens, KMS-11; KMS11 cells, cell proliferation; read-out: KMS11-Luc EC50
Summary of the method: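 EC50 derived from CellTiter-Glo luminescence after 3-day exposure at 37° C. Compound was diluted to 2× in medium and added to an equal volume of cells. KMS11 myeloma cells were plated on assay day at 2000/well in IMDM with 10% FBS and sodium pyruvate.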

PIM1 = PIM1 (Homo sapiens, UniProt P11309); assay: Pim 1 AlphaScreen assay (high ATP); format: biochemical; settings: read-out: Pim1 IC50
Sequence of PIM1 (P11309 whole entry): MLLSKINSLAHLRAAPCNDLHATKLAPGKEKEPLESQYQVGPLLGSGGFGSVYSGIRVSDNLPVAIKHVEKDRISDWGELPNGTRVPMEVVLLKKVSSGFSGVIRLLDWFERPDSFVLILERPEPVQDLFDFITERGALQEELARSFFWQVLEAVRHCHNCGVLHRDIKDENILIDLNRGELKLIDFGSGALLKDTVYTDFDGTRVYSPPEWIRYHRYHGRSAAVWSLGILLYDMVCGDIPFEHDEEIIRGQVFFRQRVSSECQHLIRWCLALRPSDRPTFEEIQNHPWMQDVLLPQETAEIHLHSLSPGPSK
Summary of the method: (§1)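 IC50 values rest on detection of phosphorylated Bad peptide: after a ~2 h kinase reaction, an EDTA stop buffer containing anti-phospho Ser/Thr antibody, Protein A and streptavidin AlphaScreen beads was added and read after overnight dark incubation. ATP was high (11-125× Km), with 2.5% DMSO in pH 7.5 Hepes buffer containing MgCl2, BSA, Tween-20 and DTT.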

PIM2 = PIM2 (Homo sapiens, UniProt Q9P1W9); assay: Pim 2 AlphaScreen assay (high ATP); format: biochemical; settings: read-out: Pim2 IC50
Sequence of PIM2 (Q9P1W9 whole entry): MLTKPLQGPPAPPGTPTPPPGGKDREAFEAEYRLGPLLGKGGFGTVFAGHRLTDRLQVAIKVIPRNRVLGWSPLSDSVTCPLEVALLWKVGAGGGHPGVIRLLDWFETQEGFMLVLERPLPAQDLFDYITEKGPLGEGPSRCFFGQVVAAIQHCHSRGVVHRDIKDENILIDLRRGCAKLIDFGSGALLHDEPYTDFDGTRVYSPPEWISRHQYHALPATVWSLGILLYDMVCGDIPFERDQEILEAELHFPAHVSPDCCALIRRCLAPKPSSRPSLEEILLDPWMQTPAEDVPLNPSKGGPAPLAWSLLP
Summary of the method: as §1

PIM3 = PIM3 (Homo sapiens, UniProt Q86V86); assay: Pim 3 AlphaScreen assay (high ATP); format: biochemical; settings: read-out: Pim3 IC50
Summary of the method: as §1

Sequence of GSK3β (P49841 whole entry, species assumed): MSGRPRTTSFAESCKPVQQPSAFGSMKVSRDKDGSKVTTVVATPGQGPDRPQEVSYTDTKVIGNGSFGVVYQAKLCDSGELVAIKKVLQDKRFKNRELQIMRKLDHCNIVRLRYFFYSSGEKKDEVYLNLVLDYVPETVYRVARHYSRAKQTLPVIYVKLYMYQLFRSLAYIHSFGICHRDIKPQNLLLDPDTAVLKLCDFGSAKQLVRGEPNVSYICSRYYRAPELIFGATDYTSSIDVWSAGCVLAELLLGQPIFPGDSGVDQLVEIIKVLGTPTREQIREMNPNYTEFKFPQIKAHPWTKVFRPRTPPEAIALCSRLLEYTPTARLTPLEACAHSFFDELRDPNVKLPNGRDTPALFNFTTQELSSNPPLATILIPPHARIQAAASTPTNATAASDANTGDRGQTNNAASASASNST

| IC50 (GSK3β) [nM] | EC50 [1] [nM] | IC50 (PIM1) [nM] | IC50 (PIM2) [nM] | IC50 (PIM3) [nM] | SMILES |
| --- | --- | --- | --- | --- | --- |
| 1290 | > 10000 | 12500 | > 25000 | > 25000 | C[C@H]1O[C@@H](c2ccncc2NC(=O)c2nn(Cc3ccccc3)cc2N)C[C@@H](O)[C@]1(C)O [Example 218, 4-amino-1-benzyl-N-(4-((2R,4R,5S,6R)-4,5-dihydroxy-5,6-dimethyltetrahydro-2H-pyran-2-yl)pyridin-3-yl)-1H-pyrazole-3-carboxamide] |
| 9140 | 6210 | 2.09 | 228 | 29.9 | C[C@@H]1O[C@H](c2ccncc2NC(=O)c2ccc(F)c(-c3c(F)cccc3F)n2)C[C@H](N)[C@@]1(C)O [Example 220, N-(4-((2S,4S,5R,6S)-4-amino-5-hydroxy-5,6-dimethyltetrahydro-2H-pyran-2-yl)pyridin-3-yl)-6-(2,6-difluorophenyl)-5-fluoropicolinamide] |
| 128 | 360 | 0.06 | 8.6 | 1.4 | Cc1cc(F)c(-c2nc(C(=O)Nc3cnccc3[C@@H]3C[C@@H](N)CC(C)(C)O3)ccc2F)c(F)c1 [Example 313, N-(4-((2S,4R)-4-amino-6,6-dimethyltetrahydro-2H-pyran-2-yl)pyridin-3-yl)-6-(2,6-difluoro-4-methylphenyl)-5-fluoropicolinamide] |
| 109 | 60 | 0.05 | 7.5 | 1.1 | CC1(C)C[C@H](N)C[C@@H](c2ccncc2NC(=O)c2ccc(F)c(-c3c(F)cc(OCCO)cc3F)n2)O1 [Example 314, N-(4-((2S,4R)-4-amino-6,6-dimethyltetrahydro-2H-pyran-2-yl)pyridin-3-yl)-6-(2,6-difluoro-4-(2-hydroxyethoxy)phenyl)-5-fluoropicolinamide] |
| 121 | 200 | 0.07 | 11.7 | 1.5 | COCCOc1cc(F)c(-c2nc(C(=O)Nc3cnccc3[C@@H]3C[C@@H](N)CC(C)(C)O3)ccc2F)c(F)c1 [Example 315, N-(4-((2S,4R)-4-amino-6,6-dimethyltetrahydro-2H-pyran-2-yl)pyridin-3-yl)-6-(2,6-difluoro-4-(2-methoxyethoxy)phenyl)-5-fluoropicolinamide] |
| 3250 | 4670 | 1 | 245 | 42 | C[C@H]1O[C@@H](c2ccncc2NC(=O)c2ccc(F)c(-c3ccccc3)n2)C[C@@H](N)[C@]1(C)O [Example 320, N-(4-((2R,4R,5S,6R)-4-amino-5-hydroxy-5,6-dimethyltetrahydro-2H-pyran-2-yl)pyridin-3-yl)-5-fluoro-6-phenylpicolinamide] |
| 1880 | > 10000 | 4.7 | 1370 | 783 | C[C@H]1O[C@@H](c2ccncc2NC(=O)c2ccc(F)c(-c3ccc(S(C)(=O)=O)cc3)n2)C[C@@H](N)[C@]1(C)O [Example 321, N-(4-((2R,4R,5S,6R)-4-amino-5-hydroxy-5,6-dimethyltetrahydro-2H-pyran-2-yl)pyridin-3-yl)-5-fluoro-6-(4-(methylsulfonyl)phenyl)picolinamide] |
| 5240 | 230 | 0.3 | 6.7 | 9 | Cc1cc(F)c(-c2nc(C(=O)Nc3cnccc3[C@H]3C[C@@H](N)[C@H](O)[C@@H](C4CC4)O3)ccc2F)c(F)c1 [Example 322, N-(4-((2R,4R,5S,6R)-4-amino-6-cyclopropyl-5-hydroxytetrahydro-2H-pyran-2-yl)pyridin-3-yl)-6-(2,6-difluoro-4-methylphenyl)-5-fluoropicolinamide] |
| 4200 | 190 | 0.3 | 13.4 | 9.7 | COc1cc(F)c(-c2nc(C(=O)Nc3cnccc3[C@H]3C[C@@H](N)[C@H](O)[C@@H](C4CC4)O3)ccc2F)c(F)c1 [Example 323, N-(4-((2R,4R,5S,6R)-4-amino-6-cyclopropyl-5-hydroxytetrahydro-2H-pyran-2-yl)pyridin-3-yl)-6-(2,6-difluoro-4-methoxyphenyl)-5-fluoropicolinamide] |
| > 25000 | 4320 | 3.4 | 396 | 184 | Cc1cc(F)c(-c2nc(C(=O)Nc3cnccc3[C@@H]3C[C@H](N)[C@@H](O)[C@H](C4CC4)O3)ccc2F)c(F)c1 [Example 324, N-(4-((2S,4S,5R,6S)-4-amino-6-cyclopropyl-5-hydroxytetrahydro-2H-pyran-2-yl)pyridin-3-yl)-6-(2,6-difluoro-4-methylphenyl)-5-fluoropicolinamide] |
| > 25000 | 5470 | 4 | 504 | 181 | COc1cc(F)c(-c2nc(C(=O)Nc3cnccc3[C@@H]3C[C@H](N)[C@@H](O)[C@H](C4CC4)O3)ccc2F)c(F)c1 [Example 325, N-(4-((2S,4S,5R,6S)-4-amino-6-cyclopropyl-5-hydroxytetrahydro-2H-pyran-2-yl)pyridin-3-yl)-6-(2,6-difluoro-4-methoxyphenyl)-5-fluoropicolinamide] |
| > 25000 | > 10000 | 27.5 | 2200 | 1930 | CS(=O)(=O)c1cc(F)c(-c2nc(C(=O)Nc3cnccc3[C@@H]3C[C@H](N)[C@@H](O)[C@H](C4CC4)O3)ccc2F)c(F)c1 [Example 326, N-(4-((2S,4S,5R,6S)-4-amino-6-cyclopropyl-5-hydroxytetrahydro-2H-pyran-2-yl)pyridin-3-yl)-6-(2,6-difluoro-4-(methylsulfonyl)phenyl)-5-fluoropicolinamide] |
| 640 | 310 | 0.07 | 18.8 | 2.6 | CSc1ccc(F)c(-c2nc(C(=O)Nc3cnccc3[C@H]3C[C@@H](N)[C@](C)(O)[C@@H](C)O3)ccc2F)c1F [Example 327, N-(4-((2R,4R,5S,6R)-4-amino-5-hydroxy-5,6-dimethyltetrahydro-2H-pyran-2-yl)pyridin-3-yl)-6-(2,6-difluoro-3-(methylthio)phenyl)-5-fluoropicolinamide] |
